US20030204862A1, “Inbred embryonic stem-cell derived mice” (priority 2002, published 2003)
Values joined by “and” are separate entries in the source; they are usually repeats but may differ in a detail not shown here. Identical values can stand only once.

Experiments:
[1] = test system: 129 ES cell lines (129S6/SvEvTac); assay: ES mouse production by injection of 129 inbred ES cells into tetraploid blastocysts; type: in vivo; conditions: ES line ESAR-S6-PD.4 (129S6/SvEvTac) grown with PD98059, 335 injected tetraploid blastocysts
Description: (§1) Production of mice by tetraploid embryo complementation has been previously described (Eggan et al. (2001) PNAS 98:6209-6214). Briefly, embryo culture was carried out in microdrops on standard bacterial petri dishes (Falcon) under mineral oil (Sigma). Modified CZB media (Chatot et al, Supra) was used for embryo culture unless otherwise noted. Hepes buffered CZB was used for room temperature operations. After administration of hormones, superovulated B6D2F1 females were mated with B6D2F1 males. Fertilized zygotes were isolated from the oviduct and any remaining cumulus cells were removed with hyluronidase. After overnight culture, two-cell embryos were electrofused to produce one cell tetraploid embryos using a CF150-B cell fusion instrument from BLS (Budapest, Hungary) according to the manufacturers instructions. Embryos that had not undergone membrane fusion within 1 hour were discarded. Embryos were then cultured in vitro to the blastocyst stage. For microinjection, 5-6 blastocysts were placed in a drop of DMEM with 15% FCS under mineral oil. A flat tip, piezo actuated microinjection-pipette with an internal diameter of 12-15 μm was used to inject 15 ES cells into each blastocyst. After recovery, ten injected blastocysts were transferred to each uterine horn of 2.5 days post coitum, pseudopregnant NMRI females that had been mated with vasectomized males. For cesarian derivation, recipient mothers were sacrificed at E 19.5 and pups were quickly removed. Newborns that were alive and respirating were cross-fostered to lactating females. Three days later, the litters were controlled, and pups alive by that time were counted as surviving pups.

C57BL/6 ES cell lines = assay: ES mouse production by injection of C57BL/6 inbred ES cells into tetraploid blastocysts; type: in vivo; conditions: for Number of respirating pups / respirating pups efficiency: E 19.5; for Number of surviving pups / surviving pups efficiency: alive three days later
Description: as §1

[2] = test system: C57BL/6 ES cell lines (Apcmin mutant or Rosa(lacZ) knock-in); assay: Production of genetically engineered and mutant inbred ES mice by tetraploid blastocyst injection; type: in vivo, mouse; design: respirating pups efficiency: concentration or dose not given beside the values
Description: as §1
In order to generate inbred ES mice which harbour genetic alterations we pursued two different strategies. In the first protocol ES cell lines that were established and grown in media with UO 126 (see Example I) and which harbour the C57BL/6-APCMin mutation were injected into tetraploid blastocysts. […] In the second protocol the C57BL/6 ES cell line ESAR-B6-PD.4 was genetically modified in a predetermined manner through homologous recombination using a gene targeting vector. This vector (Rosa(lacZ) knock-in) introduces a beta-galactosidase reporter gene in conjunction with a selectable hygromycin resistance gene into the endogenous Rosa26 locus of the ES cell genome (Seibler et al., Nucleic Acids Res. 31, e12, 2003). This gene targeting vector was electroporated into ESAR-B6-PD4 cells exactly as described (Seibler et al., Nucleic Acids Res. 31, e12, 2003) and hygromycin resistant ES cell colonies were selected, isolated and further expanded. The genomic DNA of resistant colonies was isolated and tested by Southern blot analysis for the occurrence of a homologous recombination event in one of the Rosa26 alleles. Cells from one of the recombined ES cell clones (ESAR-B6-PD.4-R9 A-F2) was injected into tetraploid blastocysts.

[3] = test system: undifferentiated ES cells; conditions: added to the culture medium; Burdon et al. (1999), WO 0015764; cited from earlier work
C57BL/6 blastocysts = assay: Derivation of ES cell lines from C57BL/6 blastocysts in medium with MEK inhibitor; type: cell-based, mouse; conditions: for Efficiency to derive ES lines / Number of established ES lines: C57BL/6, PD98059 50 then 25 micromolar, 18 blastocysts, UO126 10 then 4 micromolar, 40 blastocysts, 39° C; for higher efficiency of ES cell line derivation in the presence of the MEK inhibitor versus standard conditions: compared with standard conditions (Table 1)
Description: ES cell derivation was essentially performed as described by Hogan et al. (Manipulating the mouse embryo, CSHL Press 1994, pp253-89), except that cell culture was performed at 39° C. instead of 37° C. C57BL/6 (Janvier, France), 129SvEv/Tac (Taconic M&B, Denmark) or C57BL/6-APCMin (Jackson Laboratories, USA) male and female mice were mated to obtain blastocysts from fertilized females. The C57BL/6-APCMin mouse strain harbours a spontaneous mutation in the APC tumor suppressor gene (Su L K et al (1992) Science 256:668-670) and provides a genetic model for human hereditary colon cancer. Plug positive females were set aside, and 3 days later blastocysts were isolated by flushing their uteri. The blastocysts were further cultured overnight in CZB medium (Chatot et al. (1990) Biol. Reprod. 42:432-440) and then transferred into 12-well tissue culture plates (1 blastocyst per well), precoated with a monolayer of Mitomycin-C inactivated primary mouse embryonic fibroblasts, in standard ES cell culture medium (“standard conditions”) (Torres and Kuehn, Laboratory protocols for conditional gene targeting, Oxford University Press 1997), or in standard medium supplemented with the MEK inhibitor PD 98059 (NEB Biolabs) (50 micromolar concentration, diluted from a 50 millimolar stock in DMSO stored at −20° C.) or with the MEK inhibitor UO126 (10 micromolar concentration; NEB Biolabs). These cultures were incubated in a tissue culture incubator (Heraeus) for 6 days at 39° C. in a 10% CO2 atmosphere. The outgrown inner cell mass of each blastocyst was isolated with a pipette tip under low power magnification, transferred into a 50 microliter drop of Trypsin solution and incubated at 39° C. for 5-10 minutes. This cell clump was further dissociated by pipetting, the cells were transferred into tissue culture dishes and further propagated at 39° C. using standard ES cell culture conditions (Torres and Kuehn 1997, supra), with and without PD98059 (50 micromolar) or UO126 (10 micromolar). After the initial establishment of ES cell lines propagated in the presence of PD98059 (6 days after the first dissociation) the concentration of PD98059 was reduced to 25 micromolar, the concentration of UO 126 was reduced to 4 micromolar, and the cells were further propagated. The C57BL/6 line Bruce4 (Kontgen et al, (1993) Int Immunol. 5:957-964) was grown under standard conditions at 37° C.
(§2) The sex of the cell lines was determined through Southern blot hybridisation of genomic DNA using a detection probe (pY353) specific to a Y-chromosome specific repeat (Bishop C E and Hatat D. (1987) Nucleic Acids Res 15, 2959-2969).
For the karyotype analysis of ES cell clones, 4×10^6 cells were cultured for 1 hour in the presence of 0.2 μg/ml Demicolchicin (Sigma), trypsinised, resuspended in a hypotonic (0.56%) KCl solution and incubated for 8 minutes at room temperature. The swollen cells were sedimented by centrifugation, resuspended in freshly prepared fixative (3:1 mixture of ethanol/glacial acetic acid) and subsequently washed 2 times in fixative. Finally, the cells were resuspended in 0.5 ml fixative and dropped on glass slides precleaned with ethanol/acetic acid (19/1). After air drying, the metaphase spreads were stained for 5 minutes in a 2% solution of Giemsa's stain (Merck), washed in water, and air-dried. The chromosome numbers of 20 suitable metaphase spreads were counted at 1000× magnification under oil immersion.

129SvEv/Tac blastocysts = assay: Derivation of ES cell lines from 129SvEv/Tac blastocysts in medium with MEK inhibitor; type: cell-based, mouse; conditions: PD98059 50 then 25 micromolar, 12 blastocysts, 39° C
Description: ES cell derivation was essentially performed as described by Hogan et al. (Manipulating the mouse embryo, CSHL Press 1994, pp253-89), except that cell culture was performed at 39° C. instead of 37° C. C57BL/6 (Janvier, France), 129SvEv/Tac (Taconic M&B, Denmark) or C57BL/6-APCMin (Jackson Laboratories, USA) male and female mice were mated to obtain blastocysts from fertilized females. The C57BL/6-APCMin mouse strain harbours a spontaneous mutation in the APC tumor suppressor gene (Su L K et al (1992) Science 256:668-670) and provides a genetic model for human hereditary colon cancer. Plug positive females were set aside, and 3 days later blastocysts were isolated by flushing their uteri. The blastocysts were further cultured overnight in CZB medium (Chatot et al. (1990) Biol. Reprod. 42:432-440) and then transferred into 12-well tissue culture plates (1 blastocyst per well), precoated with a monolayer of Mitomycin-C inactivated primary mouse embryonic fibroblasts, in standard ES cell culture medium (“standard conditions”) (Torres and Kuehn, Laboratory protocols for conditional gene targeting, Oxford University Press 1997), or in standard medium supplemented with the MEK inhibitor PD 98059 (NEB Biolabs) (50 micromolar concentration, diluted from a 50 millimolar stock in DMSO stored at −20° C.) or with the MEK inhibitor UO126 (10 micromolar concentration; NEB Biolabs). These cultures were incubated in a tissue culture incubator (Heraeus) for 6 days at 39° C. in a 10% CO2 atmosphere. […]
as §2
(§3) For the karyotype analysis of ES cell clones, 4×10^6 cells were cultured for 1 hour in the presence of 0.2 μg/ml Demicolchicin (Sigma), trypsinised, resuspended in a hypotonic (0.56%) KCl solution and incubated for 8 minutes at room temperature. […] The chromosome numbers of 20 suitable metaphase spreads were counted at 1000× magnification under oil immersion.

[4] = test system: C57BL/6-APCMin blastocysts; conditions: UO126 10 then 4 micromolar, 33 blastocysts, 39° C
Description: ES cell derivation was essentially performed as described by Hogan et al. (Manipulating the mouse embryo, CSHL Press 1994, pp253-89), except that cell culture was performed at 39° C. instead of 37° C. C57BL/6 (Janvier, France), 129SvEv/Tac (Taconic M&B, Denmark) or C57BL/6-APCMin (Jackson Laboratories, USA) male and female mice were mated to obtain blastocysts from fertilized females. The C57BL/6-APCMin mouse strain harbours a spontaneous mutation in the APC tumor suppressor gene (Su L K et al (1992) Science 256:668-670) and provides a genetic model for human hereditary colon cancer. Plug positive females were set aside, and 3 days later blastocysts were isolated by flushing their uteri. […]
as §2, §3

[5] = ES line ESAR-B6-PD.13 (C57BL/6J) grown with PD98059, 180 injected tetraploid blastocysts
[6] = ES line ESAR-B6-PD.3 (C57BL/6J) grown with PD98059, 372 injected tetraploid blastocysts
[7] = ES line ESAR-B6-PD.4 (C57BL/6J) grown with PD98059, 329 injected tetraploid blastocysts
[8] = Sum of three C57BL/6 ES lines grown with PD98059, 881 injected tetraploid blastocysts
[9] = Rosa(lacZ) knock-in ES clone ESAR-B6-PD.4 R9 B-G12 (C57BL/6 J) with PD98059, 162 injected tetraploid blastocysts
[10] = ES line ESAR-APC 3 UO (C57BL/6 J Apcmin) grown with UO126, 405 injected tetraploid blastocysts
[11] = ES line ESAR-APC 9 UO (C57BL/6 J Apcmin) grown with UO126, 228 injected tetraploid blastocysts
[12] = Sum of two C57BL/6 J Apcmin ES lines grown with UO126, 633 injected tetraploid blastocysts

SMILES: COc1cccc(-c2cc(=O)c3ccccc3o2)c1N [PD98059, 2′-amino-3′-methoxyflavone]
- Number of respirating pups ([1]; E 19.5): 29
- respirating pups efficiency ([1]; E 19.5): 8.66%
- Number of surviving pups ([1]; alive three days later): 15
- surviving pups efficiency ([1]; alive three days later): 4.48%
- Number of respirating pups (C57BL/6 ES cell lines; [5]): 4
- respirating pups efficiency (C57BL/6 ES cell lines; [5]): 2.22%
- Number of surviving pups (C57BL/6 ES cell lines; [5]): 0
- surviving pups efficiency (C57BL/6 ES cell lines; [5]): 0.00%
- Number of respirating pups (C57BL/6 ES cell lines; [6]): 8
- respirating pups efficiency (C57BL/6 ES cell lines; [6]): 2.15%
- Number of surviving pups (C57BL/6 ES cell lines; [6]): 1
- surviving pups efficiency (C57BL/6 ES cell lines; [6]): 0.27%
- Number of respirating pups (C57BL/6 ES cell lines; [7]): 11
- respirating pups efficiency (C57BL/6 ES cell lines; [7]): 3.34%
- Number of surviving pups (C57BL/6 ES cell lines; [7]): 4
- surviving pups efficiency (C57BL/6 ES cell lines; [7]): 1.22%
- Number of respirating pups (C57BL/6 ES cell lines; [8]): 23
- respirating pups efficiency (C57BL/6 ES cell lines; [8]): 2.6% and 2.61%
- Number of surviving pups (C57BL/6 ES cell lines; [8]): 5
- surviving pups efficiency (C57BL/6 ES cell lines; [8]): 0.57%
- Number of respirating pups [2, 9]: 4
- respirating pups efficiency [2, 9]: 2.47%
- effect on growth of undifferentiated ES cells [3]: enhances the growth of undifferentiated ES cells
- Efficiency to derive ES lines (C57BL/6 blastocysts): 61%
- Number of established ES lines (C57BL/6 blastocysts): 11
- Efficiency to derive ES lines (C57BL/6 blastocysts; listed as PD 98059): 61%
- higher efficiency of ES cell line derivation in the presence of the MEK inhibitor versus standard conditions (C57BL/6 blastocysts): 5 fold
- Efficiency to derive ES lines (129SvEv/Tac blastocysts): 75%
- Number of established ES lines (129SvEv/Tac blastocysts): 9
- Efficiency to derive ES lines (129SvEv/Tac blastocysts; listed as PD 98059): 75%

SMILES: N#CC(=C(/N)Sc1ccccc1N)/C(C#N)=C(/N)Sc1ccccc1N [UO126, bis[amino[(2-aminophenyl)thio]methylene]butanedinitrile]
- Number of respirating pups [2, 10]: 11
- respirating pups efficiency [2, 10]: 2.72%
- Number of respirating pups [2, 11]: 1
- respirating pups efficiency [2, 11]: 0.44%
- Number of respirating pups [2, 12]: 12
- respirating pups efficiency [2, 12]: 1.90%
- respirating pups efficiency ([2]; Sum of two C57BL/6 J Apcmin ES lines grown with UO126, 633 injected tetraploid blastocysts, listed as UO 126): 1.9%
- Efficiency to derive ES lines (C57BL/6 blastocysts): 80%
- Number of established ES lines (C57BL/6 blastocysts): 32
- Efficiency to derive ES lines (C57BL/6 blastocysts; listed as UO 126): 80%
- higher efficiency of ES cell line derivation in the presence of the MEK inhibitor versus standard conditions (C57BL/6 blastocysts): 5 fold
- Efficiency to derive ES lines [4]: 36%
- Number of established ES lines [4]: 12
